Experimental findings from ChEMBL document CHEMBL3244162, “Synthesis and biological evaluation of tetramisole analogues as inhibitors of alkaline phosphatase of the 6-thiopurine-resistant tumor sarcoma 180/TG” (J Med Chem, 1979) are described below.

Holding throughout (format): cell-based
The species entered for assay [1] is Mus musculus. As to the kind of experiment: Inhibition of alkaline phosphatase in mouse 180/TG cells assessed as p-nitrophenyl phosphate hydrolysis up to 1 mM by spectrophotometry.
For assay [2], the species on record is Mus musculus. As to the kind of experiment: Inhibition of alkaline phosphatase in mouse 180/TG cells assessed as p-nitrophenyl phosphate hydrolysis up to 5 mM by spectrophotometry.
Assay [3] can be described thus: Inhibition of alkaline phosphatase in mouse 180/TG cells assessed as p-nitrophenyl phosphate hydrolysis by spectrophotometry. The following applies: read-out: I50.

Each structure is given as a SMILES string. Counter-ions that a name gives are not always drawn. Calls of active or inactive are those of the source. The calls are words filed in the database; no cut-off is given here.

With `c1ccc(C2CN3CCNC3=N2)cc1` (stereo not given), the inhibition (usually the share of the control response that was lost under treatment) in the assay filed under Mus musculus [1] is “inactive”. For the same compound, the inhibition in the assay filed under Mus musculus [2] turned out to be 15%.

With `c1ccc(C2CN3CCOC3=N2)cc1` (stereo not given), in assay [3], the IC50 turned out to be 210 µM.

For `c1ccc(C2CN3CCSC3=N2)cc1` (stereo not given) [TETRAMISOLE HYDROCHLORIDE], the IC50 in assay [3] was 45 µM.

Turning to `c1ccc(-c2cn3c(n2)OCC3)cc1`, the inhibition entry in the assay listed under Mus musculus [1] is “inactive”.
